This passage reports TGI and GI50 results from PubChem BioAssay (NCI).

Test systems include CCRF-CEM leukemia; COLO 205 colon; HCC-2998 colon; HOP-62 NSCLC; MALME-3M melanoma; NCI-H226 lung; NCI-H522 lung; RXF 393 renal; SK-MEL-2 melanoma; SR leukemia.
Test in all cases: NCI anticancer screen, dose series, 48 h

Each structure is given as a SMILES string.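 1) Cells in 96-well plates. 2) Compound, 48 h, 5 concentrations. 3) Linear interpolation between surrounding doses. 4) Unreached endpoint = highest concentration. GI50: concentration for 50% inhibition of growth. TGI: concentration producing complete growth inhibition.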 A value given as a limit tells only on which side of the number the result lay.

Take `CN(C)CC1(C)CC/C(=C\c2ccccc2)C1=O` (stereo not drawn): the TGI in the assay on CCRF-CEM leukemia, with COLO 205 colon, in the assay with HCC-2998 colon, with HOP-62 NSCLC, in the assay with MALME-3M melanoma and with NCI-H226 lung was > 100 µM in each case. Further, the TGI with NCI-H522 lung, with RXF 393 renal and with SK-MEL-2 melanoma was > 100 µM in each case.
Consider `O=C(Nc1c(O)[nH]c(=S)[nH]c1=O)c1ccc2ccccc2n1`, for which the TGI in the assay with CCRF-CEM leukemia, with COLO 205 colon, in the assay on HOP-62 NSCLC, with MALME-3M melanoma, with NCI-H226 lung and in the assay on NCI-H522 lung was > 100 µM throughout. Moreover, the TGI with SR leukemia is > 100 µM.
In the case of `O=C1CCC2(CC1)SCCCS2`, the TGI with CCRF-CEM leukemia, in the assay with COLO 205 colon, in the assay with HCC-2998 colon, with HOP-62 NSCLC, in the assay with MALME-3M melanoma and in the assay with NCI-H226 lung was > 100 µM throughout. For the same molecule, the TGI in the assay on NCI-H522 lung, in the assay with RXF 393 renal and with SK-MEL-2 melanoma was > 100 µM in each case.
On to `CCCCCCCC/C=C\CCCCCCCC(=O)NCCN(CCN)C(=O)CCCCCCC/C=C\CCCCCCCC`, for which the TGI with CCRF-CEM leukemia, in the assay on COLO 205 colon, in the assay with HCC-2998 colon, with HOP-62 NSCLC, with MALME-3M melanoma and in the assay with NCI-H226 lung was > 100 µM each time. Besides, the TGI in the assay on SR leukemia is > 100 µM.
`Cc1cc(Cl)ccc1N=C1NC(=O)C(CC(=O)Nc2ccc(Cl)cc2Cl)S1` (stereo not drawn): the TGI in the assay with CCRF-CEM leukemia, in the assay with COLO 205 colon, with HCC-2998 colon, in the assay with HOP-62 NSCLC, with MALME-3M melanoma and in the assay on SK-MEL-2 melanoma was > 100 µM throughout.
Turning to `NCCNC(=S)S`, the TGI with CCRF-CEM leukemia is 90.6 µM; in the assay on COLO 205 colon, > 100 µM; in the assay on HCC-2998 colon, > 100 µM; in the assay with HOP-62 NSCLC, > 100 µM; in the assay with MALME-3M melanoma, 30 µM; in the assay on NCI-H226 lung, > 100 µM. The TGI is 16.6 µM with NCI-H522 lung, > 100 µM in the assay with RXF 393 renal and > 100 µM in the assay on SK-MEL-2 melanoma.
Turning to `O=C1OC(O)C(Oc2ccc(Cl)cc2)=C1Cl` (stereo not drawn), the TGI in the assay on CCRF-CEM leukemia, with COLO 205 colon, in the assay on HCC-2998 colon, with HOP-62 NSCLC, in the assay with MALME-3M melanoma and in the assay with NCI-H226 lung was > 100 µM throughout. In addition, the TGI with NCI-H522 lung, in the assay with RXF 393 renal and with SK-MEL-2 melanoma was > 100 µM in each case.
Take `C=C(C)[C@@H]1CC[C@]2(C)[C@H](CC[C@@H]3[C@H]4[C@H]5OC[C@@]4(CCC5(C)C)CC[C@]32C)[C@@]1(C)CCCN`: the GI50 in the assay on CCRF-CEM leukemia was 2440 nM; in the assay with COLO 205 colon, 2150 nM; in the assay with HCC-2998 colon it was 1490 nM; in the assay on HOP-62 NSCLC, 2000 nM; with MALME-3M melanoma, 1770 nM; with RXF 393 renal, 1640 nM. In addition, the TGI in the assay with CCRF-CEM leukemia was > 100 µM; in the assay with COLO 205 colon, 4.65 µM; in the assay with HCC-2998 colon it was 2.91 µM; in the assay on HOP-62 NSCLC it was 4.42 µM; in the assay on MALME-3M melanoma, 3.45 µM; in the assay with RXF 393 renal it was 3.07 µM.
Regarding `O=C1C(=O)C(Br)(Br)C(Br)=C1Br`, the TGI with CCRF-CEM leukemia is 57.1 µM; in the assay with COLO 205 colon it was 32.9 µM; in the assay on HCC-2998 colon, 62 µM; in the assay with HOP-62 NSCLC it was > 100 µM; in the assay with MALME-3M melanoma it was 35.4 µM; in the assay with NCI-H522 lung, 6.68 µM. The TGI in the assay on SK-MEL-2 melanoma worked out at 33.7 µM.
Regarding `N#CCCN(c1ccc(-c2nnc(NC(=O)CNNC(=O)CC(=O)Nc3ccccc3)s2)cc1)S(=O)(=O)c1ccccc1`, the TGI with CCRF-CEM leukemia, in the assay with COLO 205 colon, with HCC-2998 colon, with HOP-62 NSCLC, in the assay with MALME-3M melanoma and in the assay on NCI-H226 lung was > 100 µM throughout. In addition, the TGI in the assay with NCI-H522 lung and with SK-MEL-2 melanoma was > 100 µM throughout.
For the molecule `O=[N+]([O-])c1nccn1COCCF`, the TGI with CCRF-CEM leukemia, in the assay on COLO 205 colon, in the assay with HOP-62 NSCLC, with MALME-3M melanoma, in the assay with NCI-H226 lung and with NCI-H522 lung was > 100 µM throughout. The TGI in the assay on SK-MEL-2 melanoma and in the assay with SR leukemia was > 100 µM in each case.
`COc1ccc(/C=C2\CCC(C)(CN(C)C)C2=O)cc1` (stereo not drawn): the TGI was > 100 µM with COLO 205 colon; > 100 µM with HCC-2998 colon; > 100 µM with HOP-62 NSCLC; > 100 µM with MALME-3M melanoma; > 100 µM with NCI-H226 lung; 32.8 µM with NCI-H522 lung. The TGI with RXF 393 renal and in the assay with SK-MEL-2 melanoma was > 100 µM throughout.
For the molecule `Cc1ccccc1C(C#N)C(=O)C(=O)Nc1cccc(Cl)c1` (stereo not drawn), the TGI in the assay with CCRF-CEM leukemia, with COLO 205 colon, with HCC-2998 colon, in the assay on HOP-62 NSCLC, in the assay on MALME-3M melanoma and with NCI-H226 lung was > 100 µM throughout. For the same molecule, the TGI in the assay on NCI-H522 lung, with RXF 393 renal and in the assay on SK-MEL-2 melanoma was > 100 µM throughout.
Turning to `CN(C)CCNC(=O)c1cccc2[nH]c(-c3ccccc3)nc12`, the TGI was > 100 µM in the assay with CCRF-CEM leukemia; 24.7 µM in the assay with COLO 205 colon; 29.1 µM in the assay with HCC-2998 colon; 52.8 µM in the assay on HOP-62 NSCLC; 39.5 µM in the assay on NCI-H226 lung; 33.2 µM in the assay on RXF 393 renal. This molecule also returned a TGI in the assay on SK-MEL-2 melanoma of 32.5 µM.
Consider `CCOC(=O)c1sc(Nc2ccc(Cl)cc2)nc1C`, for which the GI50 is 2640 nM in the assay on CCRF-CEM leukemia; 1830 nM in the assay with COLO 205 colon; 1750 nM with HCC-2998 colon; 1890 nM with HOP-62 NSCLC; 1610 nM in the assay with MALME-3M melanoma; 1760 nM with NCI-H226 lung. The GI50 in the assay with NCI-H522 lung was 1180 nM; in the assay with RXF 393 renal, 2110 nM; in the assay on SK-MEL-2 melanoma it was 2100 nM. The TGI in the assay on CCRF-CEM leukemia amounted to 9.37 µM; with COLO 205 colon, 3.59 µM; with HCC-2998 colon, 3.34 µM; in the assay with HOP-62 NSCLC, 5.06 µM; in the assay with MALME-3M melanoma it was 3.59 µM; in the assay on NCI-H226 lung, 4.46 µM. Moreover, the TGI with NCI-H522 lung is 3.57 µM; in the assay on RXF 393 renal, 4.75 µM; in the assay with SK-MEL-2 melanoma, 4.2 µM.
